Where two headings read alike, the source gives them in different places.
Columns and labels:
large crabgrass = assay: Test C pre-/postemergence herbicide test; format: in vivo, Digitaria sanguinalis
In short: (§1)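 Visual ratings on a 0–100 scale (100 = complete control) made versus untreated controls after 12 to 14 greenhouse days. Test chemicals, formulated in surfactant-containing non-phytotoxic solvent, applied preemergence to planted seeds or postemergence to 1- to 4-leaf plants (2 to 18 cm).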

barnyardgrass [1] = assay: Test A pre-/postemergence herbicide test; format: in vivo, Echinochloa crus-galli; conditions: Echinochloa crus-galli, 240 h; for pest or weed control at 500 g/ha: 500 g ai/ha; for pest or weed control at 2000 g/ha: 2000 g ai/ha
In short: (§2)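 Visual injury scores on a 0–100 scale (100 = complete control) taken about ten days post-treatment in greenhouse against untreated controls; dash means no result. Treatments: preemergence soil spray and postemergence spray to runoff on one- to two-leaf plants 2 to 10 cm tall, surfactant-containing formulation.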

common ragweed = assay: Test C pre-/postemergence herbicide test; format: in vivo, Ambrosia elatior
In short: as §1

ducksalad = assay: Test C flooded paddy test; format: in vivo, Heteranthera limosa; conditions: Heteranthera limosa
yellow nutsedge = assay: Test C pre-/postemergence herbicide test; format: in vivo, Cyperus esculentus
In short: as §1

eastern black nightshade = assay: Test C pre-/postemergence herbicide test; format: in vivo, Solanum ptycanthum
In short: as §1

cocklebur = assay: Test C pre-/postemergence herbicide test; format: in vivo, Xanthium strumarium
In short: as §1

redroot pigweed = assay: Test A pre-/postemergence herbicide test; format: in vivo, Amaranthus retroflexus; conditions: Amaranthus retroflexus, 240 h; for pest or weed control at 500 g/ha: 500 g ai/ha; for pest or weed control at 2000 g/ha: 2000 g ai/ha
In short: as §2

corn = assay: Test C pre-/postemergence herbicide test; format: in vivo, Zea mays
In short: as §1

velvetleaf [2] = assay: Test C pre-/postemergence herbicide test; format: in vivo, Abutilon theophrasti
In short: as §1

barnyardgrass [3] = assay: Test C flooded paddy test; format: in vivo, Echinochloa crus-galli; conditions: Echinochloa crus-galli
In short: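 Weeds and wheat were sprayed after emergence, at a height of 2 to 18 cm (1–4 leaves), and paddy barnyardgrass was flooded and treated at two leaves. Assessment took place 12–14 days later in the greenhouse on a 0-to-100 visual control scale. A dash means no result was obtained.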

velvetleaf [4] = assay: Test A pre-/postemergence herbicide test; format: in vivo, Abutilon theophrasti; conditions: Abutilon theophrasti, 240 h; for pest or weed control at 500 g/ha: 500 g ai/ha; for pest or weed control at 2000 g/ha: 2000 g ai/ha
In short: as §2

rice = assay: Test C flooded paddy test; format: in vivo, Oryza sativa; conditions: Oryza sativa
In short: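 Injury scored visually against controls on a 0 (no effect) to 100 (complete control) scale, 12 to 14 days after treatment in greenhouse. Flooded paddy plants treated at 2-leaf stage; postemergence plants at 1- to 4-leaf stage, 2 to 18 cm tall.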

[5] = Preemergence, 500 g ai/ha, scale 0 to 100, 0 no effect, 100 complete control
[6] = post-emergence, Postemergence, 0 to 100 scale, 0 no effect, 100 complete control, read-out: Plant response rating, Barnyardgrass
[7] = post-emergence, Postemergence, 0 to 100 scale, 0 no effect, 100 complete control, read-out: Plant response rating, Pigweed
[8] = post-emergence, Postemergence, 0 to 100 scale, 0 no effect, 100 complete control, read-out: Plant response rating, Velvetleaf

CCn1nc(C(C)(C)C)cc1C(=O)Nc1cc(C(=O)N(C)C)ccc1F [Compound 6, N-[5-[(dimethylamino)carbonyl]-2-fluorophenyl]-3-(1,1-dimethylethyl)-1-ethyl-1H-pyrazole-5-carboxamide]
Plant response rating (0 = no effect, 100 = complete control), Crabgrass, Large (large crabgrass; 62 g ai/ha, preemergence): 75 | pest or weed control at 125 g/ha (large crabgrass; Digitaria sanguinalis, pre-emergence, 312 h, 125 g ai/ha, scale 0-100, read-out: Plant response rating, Crabgrass, Large): 95% | pest or weed control at 250 g/ha (large crabgrass; Digitaria sanguinalis, pre-emergence, 312 h, 250 g ai/ha, scale 0 to 100 (0 no effect, 100 complete control), visual, 12 to 14 days, read-out: Plant response rating, Crabgrass, Large): 95% | Crabgrass, Large plant response rating (large crabgrass; [5]): 100 | pest or weed control at 500 g/ha (barnyardgrass [1]; [6]): 80% | pest or weed control at 2000 g/ha (barnyardgrass [1]; [6]): 90% | pest or weed control at 500 g/ha (barnyardgrass [1]; pre-emergence, Preemergence, visual rating, 0 to 100 scale (0 no effect, 100 complete control), read-out: Barnyardgrass plant response rating): 100% | pest or weed control at 2000 g/ha (barnyardgrass [1]; pre-emergence, Preemergence, 0 to 100 scale, 0 no effect, 100 complete control, read-out: Barnyardgrass plant response rating): 100% | Plant response rating (0 = no effect, 100 = complete control), Ragweed (common ragweed; 62 g ai/ha, preemergence): 100 | pest or weed control at 250 g/ha (common ragweed; Ambrosia artemisiifolia, pre-emergence, 250 g ai/ha, scale 0 to 100 (0 no effect, 100 complete control), visual, 12 to 14 days, read-out: Plant response rating, Ragweed): 100% | Ragweed plant response rating (common ragweed; [5]): 100 | pest or weed control at 62 g/ha (ducksalad; 62 g ai/ha, scale 0 to 100 (0 no effect, 100 complete control), read-out: Ducksalad plant response rating): 80% | pest or weed control at 125 g/ha (ducksalad; 125 g ai/ha, scale of 0 to 100, 0 is no effect, 100 is complete control, read-out: Ducksalad plant response rating): 90% | pest or weed control at 250 g/ha (ducksalad; 250 g ai/ha, visual rating after 12 to 14 days, scale 0 to 100 (0 no effect, 100 complete control), read-out: Plant response rating, Ducksalad): 90% | pest or weed control at 500 g/ha (ducksalad; 500 g ai/ha, visual rating after 12 to 14 days, scale 0 to 100 (0 no effect, 100 complete control), read-out: Plant response rating, Ducksalad): 100% | Plant response rating (0 = no effect, 100 = complete control), Nutsedge, Yellow (yellow nutsedge; 62 g ai/ha, preemergence): 50 | pest or weed control at 250 g/ha (yellow nutsedge; Cyperus, pre-emergence, 250 g ai/ha, scale 0 to 100 (0 no effect, 100 complete control), visual, 12 to 14 days, read-out: Plant response rating, Nutsedge, Yellow): 80% | Nutsedge, Yellow plant response rating (yellow nutsedge; [5]): 85 | Plant response rating (0 = no effect, 100 = complete control), Nightshade (eastern black nightshade; 62 g ai/ha, preemergence): 100 | Nightshade plant response rating (eastern black nightshade; [5]): 100 | pest or weed control at 250 g/ha (eastern black nightshade; pre-emergence, 250 g ai/ha, scale 0 to 100 (0 no effect, 100 complete control), visual, 12 to 14 days, read-out: Plant response rating, Nightshade): 100% | Plant response rating (0 = no effect, 100 = complete control), Cocklebur (cocklebur; 62 g ai/ha, preemergence): 60 | pest or weed control at 125 g/ha (cocklebur; Xanthium strumarium, pre-emergence, 312 h, 125 g ai/ha, scale 0-100, read-out: Plant response rating, Cocklebur): 100% | pest or weed control at 250 g/ha (cocklebur; Xanthium strumarium, pre-emergence, 312 h, 250 g ai/ha, scale 0 to 100 (0 no effect, 100 complete control), visual, 12 to 14 days, read-out: Plant response rating, Cocklebur): 100% | pest or weed control at 500 g/ha (cocklebur; Xanthium strumarium, pre-emergence, 312 h, Preemergence, 500 g ai/ha, scale 0 to 100, 0 no effect, 100 complete control, read-out: Cocklebur plant response rating): 100% | pest or weed control at 500 g/ha (redroot pigweed; [7]): 100% | pest or weed control at 2000 g/ha (redroot pigweed; [7]): 100% | pest or weed control at 500 g/ha (redroot pigweed; pre-emergence, Preemergence, visual rating, 0 to 100 scale (0 no effect, 100 complete control), read-out: Pigweed plant response rating): 100% | pest or weed control at 2000 g/ha (redroot pigweed; pre-emergence, Preemergence, 0 to 100 scale, 0 no effect, 100 complete control, read-out: Pigweed plant response rating): 100% | Plant response rating (0 = no effect, 100 = complete control), Corn (corn; 62 g ai/ha, preemergence): 60 | Corn plant response rating (corn; [5]): 80 | Corn plant response rating (crop injury, 0 = no effect, 100 = complete kill) at 125 g/ha (corn; Zea mays, pre-emergence, 312 h, 125 g ai/ha, scale 0-100): 60% | Corn plant response rating (crop injury, 0 = no effect, 100 = complete kill) at 250 g/ha (corn; Zea mays, pre-emergence, 312 h, 250 g ai/ha, scale 0 to 100 (0 no effect, 100 complete control), visual, 12 to 14 days): 80% | Plant response rating (0 = no effect, 100 = complete control), Velvetleaf (velvetleaf [2]; 62 g ai/ha, preemergence): 40 | pest or weed control at 250 g/ha (velvetleaf [2]; Abutilon theophrasti, pre-emergence, 250 g ai/ha, scale 0 to 100 (0 no effect, 100 complete control), visual, 12 to 14 days, read-out: Plant response rating, Velvetleaf): 100% | Velvetleaf plant response rating (velvetleaf [2]; [5]): 100 | pest or weed control at 62 g/ha (barnyardgrass [3]; 62 g ai/ha, scale 0 to 100 (0 no effect, 100 complete control), read-out: Barnyardgrass plant response rating): 60% | pest or weed control at 125 g/ha (barnyardgrass [3]; 125 g ai/ha, scale of 0 to 100, 0 is no effect, 100 is complete control, read-out: Barnyardgrass plant response rating): 90% | pest or weed control at 250 g/ha (barnyardgrass [3]; 250 g ai/ha, visual rating after 12 to 14 days, scale 0 to 100 (0 no effect, 100 complete control), read-out: Plant response rating, Barnyardgrass): 90% | pest or weed control at 500 g/ha (barnyardgrass [3]; 500 g ai/ha, visual rating after 12 to 14 days, scale 0 to 100 (0 no effect, 100 complete control), read-out: Plant response rating, Barnyardgrass): 90% | pest or weed control at 500 g/ha (velvetleaf [4]; [8]): 90% | pest or weed control at 2000 g/ha (velvetleaf [4]; [8]): 95% | pest or weed control at 500 g/ha (velvetleaf [4]; pre-emergence, Preemergence, visual rating, 0 to 100 scale (0 no effect, 100 complete control), read-out: Velvetleaf plant response rating): 100% | pest or weed control at 2000 g/ha (velvetleaf [4]; pre-emergence, Preemergence, 0 to 100 scale, 0 no effect, 100 complete control, read-out: Velvetleaf plant response rating): 100% | plant injury at 62 g/ha (rice; 62 g ai/ha, scale 0 to 100 (0 no effect, 100 complete control), read-out: Rice plant response rating): 40% | plant injury at 125 g/ha (rice; 125 g ai/ha, scale of 0 to 100, 0 is no effect, 100 is complete control, read-out: Rice plant response rating): 80% | plant injury at 250 g/ha (rice; 250 g ai/ha, visual rating after 12 to 14 days, scale 0 to 100 (0 no effect, 100 complete control), read-out: Plant response rating, Rice): 80% | plant injury at 500 g/ha (rice; 500 g ai/ha, visual rating after 12 to 14 days, scale 0 to 100 (0 no effect, 100 complete control), read-out: Plant response rating, Rice): 90%
